According to patent US11034672B1, “Tyrosine kinase inhibitor compositions, methods of making and methods of use” (Black Diamond Therapeutics, Inc., priority 2018, dated 2021):

Experiments:
[1] = target: WT-EGFR (A431 cell line) (Homo sapiens, UniProt P00533); assay: A431 cell proliferation (Cell Titer Glo), WT-EGFR; assay type: cell-based; conditions: A431 cells, 72 hours
Procedure: To determine the ability of Compound No. 6 to target wild type HER2, wild type EGFR, and relevant mutants of each, a panel of BaF3 cell lines and the A431 cell line were dosed and assessed in cell proliferation assays. The BaF3 parental cell line is normally dependent on IL-3 for proliferation, but when transformed with active tyrosine kinase can grow in the absence of IL-3. However, when transformed kinase activity is inhibited by a targeted small molecule the associated proliferation is reduced in proportion to the extent of inhibition. […] Proliferation was assessed using the Cell Titer Glo cell proliferation kit (Promega # G7573). […] Cell Titer Glo was added to plated cells at 15 ul per well, the plate was shaken for 20 minutes at room temperature, and luminescence was measured using Victor X3 Multimode plate reader (Perkin Elmer), Cell Titer Glo readings were taken following 72 hours (T72) after addition of Compound No. 6. […]
The BaF3 parental cell line is normally dependent on IL-3 for proliferation, but when transformed with active tyrosine kinase can grow in the absence of IL-3. […] Proliferation was assessed using the Cell Titer Glo cell proliferation kit (Promegaf# G7573). […] Cell Titer Glo was added to plated cells at 15 ul per well, the plate was shaken for 20 minutes at room temperature, and luminescence was measured using Victor X3 Multimode plate reader (Perkin Elmer). […]

[2] = tested on: CUTO-14 tumors (EGFR-Exon 20 insertion ASV); assay: Tumor growth in athymic nude mice bearing CUTO-14 tumors; assay type: in vivo
Procedure: To determine the ability of Compound No. 6 to inhibit tumor growth and induce tumor regression in vivo, a mouse tumor model containing the EGFR-Exon 20 insertion ASV (CUTO-14) mutation was used. Athymic nude mice from Charles River Labs bearing CUTO-14 tumors were treated with Compound No. 6 at either 50 mg/kg once per day (QD) or 25 mg/kg twice per day (BID) over the indicated time course, and tumor volume was measured. Tumor volume was analyzed to assess the effect of Compound No. 6 on tumor growth and regression.

WT-EGFR (A431 cell line), sequence (P00533 25-1210): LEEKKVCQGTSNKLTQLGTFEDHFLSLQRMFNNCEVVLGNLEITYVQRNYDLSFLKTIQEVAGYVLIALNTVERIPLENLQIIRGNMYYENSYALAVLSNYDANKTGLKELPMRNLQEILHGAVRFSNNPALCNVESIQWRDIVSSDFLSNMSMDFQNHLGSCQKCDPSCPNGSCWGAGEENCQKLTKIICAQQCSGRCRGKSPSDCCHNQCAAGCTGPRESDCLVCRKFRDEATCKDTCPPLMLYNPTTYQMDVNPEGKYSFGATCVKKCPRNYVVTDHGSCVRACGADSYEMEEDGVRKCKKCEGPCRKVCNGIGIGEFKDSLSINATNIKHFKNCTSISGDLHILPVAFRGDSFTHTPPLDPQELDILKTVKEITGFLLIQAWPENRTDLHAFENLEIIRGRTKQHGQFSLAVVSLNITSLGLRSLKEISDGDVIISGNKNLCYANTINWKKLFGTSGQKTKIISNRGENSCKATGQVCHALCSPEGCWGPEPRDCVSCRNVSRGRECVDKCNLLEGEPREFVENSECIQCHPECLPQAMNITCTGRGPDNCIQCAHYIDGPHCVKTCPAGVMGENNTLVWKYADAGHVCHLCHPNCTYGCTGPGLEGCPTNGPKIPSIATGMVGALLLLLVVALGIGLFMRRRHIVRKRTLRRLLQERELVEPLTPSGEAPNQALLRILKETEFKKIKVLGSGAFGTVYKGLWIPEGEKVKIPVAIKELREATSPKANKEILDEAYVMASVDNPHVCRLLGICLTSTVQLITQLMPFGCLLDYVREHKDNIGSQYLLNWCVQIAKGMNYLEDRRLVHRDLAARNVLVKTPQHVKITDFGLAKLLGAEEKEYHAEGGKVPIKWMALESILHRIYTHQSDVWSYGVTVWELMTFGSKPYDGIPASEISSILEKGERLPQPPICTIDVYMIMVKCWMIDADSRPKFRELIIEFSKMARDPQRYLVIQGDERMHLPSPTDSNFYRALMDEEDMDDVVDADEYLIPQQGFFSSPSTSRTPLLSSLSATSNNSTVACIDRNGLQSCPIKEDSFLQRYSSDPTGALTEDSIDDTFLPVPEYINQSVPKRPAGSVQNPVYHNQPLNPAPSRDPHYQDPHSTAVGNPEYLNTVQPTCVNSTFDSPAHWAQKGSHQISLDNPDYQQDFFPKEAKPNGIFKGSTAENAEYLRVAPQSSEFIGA

IC50 [1] [nM]	SMILES	Tumor volume ([2]; 25 mg/kg twice per day (BID), FIG. 32)	Tumor volume ([2]; 50 mg/kg once per day (QD), FIG. 32)	Tumor volume ([2]; 30 mg/kg once per day (QD), FIG. 31)	Tumor volume ([2]; 50 mg/kg twice per day (BID), FIG. 31)
> 100	C=CC(=O)Nc1cc2c(Nc3cc(Cl)c(OCc4cccc(F)c4)cc3F)ncnc2cc1OCCN1CCOCC1 [compound 6]	decreased	decreased	–	–
> 100	C=CC(=O)Nc1cc2c(Nc3ccc(OCc4ccccn4)c(Cl)c3)ncnc2cc1OCCN1CCOCC1 [compound 8]	–	–	decreased	decreased
